Results reported in patent US11021493B2, “1,4-thiazine dioxide and 1,2,4-thiadiazine dioxide derivatives as beta-secretase inhibitors and methods of use” (AMGEN INC., priority 2016, dated 2021).

What was measured:
BACE1 [1] = biological target: T1, BACE1 (Homo sapiens (Human), UniProt P56817); experiment: In vitro enzymatic BACE1 FRET assay; assay type: biochemical; conditions: read-out: BACE1 Enzyme IC50
Target sequence in this assay (P56817 46-501): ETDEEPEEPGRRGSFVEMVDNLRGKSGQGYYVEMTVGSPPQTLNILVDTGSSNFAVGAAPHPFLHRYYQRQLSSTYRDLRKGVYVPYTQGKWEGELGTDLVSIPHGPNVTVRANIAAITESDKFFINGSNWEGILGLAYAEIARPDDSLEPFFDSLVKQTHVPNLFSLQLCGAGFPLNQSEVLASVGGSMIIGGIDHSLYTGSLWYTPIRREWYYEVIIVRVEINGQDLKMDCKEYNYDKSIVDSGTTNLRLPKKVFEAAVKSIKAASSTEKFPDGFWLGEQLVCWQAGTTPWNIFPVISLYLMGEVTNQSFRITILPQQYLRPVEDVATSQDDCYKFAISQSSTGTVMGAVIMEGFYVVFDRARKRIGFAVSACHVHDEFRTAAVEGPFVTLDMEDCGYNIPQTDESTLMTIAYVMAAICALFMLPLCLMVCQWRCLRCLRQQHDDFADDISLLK

BACE1 [2] = biological target: T1, BACE1; experiment: In vitro BACE1 cell-based assay (Aβ40 in conditioned medium of cells stably expressing APP, HTRF); conditions: Aβ40 in conditioned media after 24 h incubation
Target sequence in this assay (P56817 46-501, species assumed): as the sequence (P56817 46-501) above

human recombinant BACE2 = human recombinant BACE2 (Homo sapiens (Human), UniProt Q9Y5Z0); experiment: In vitro enzymatic BACE2 FRET assay; assay type: biochemical; conditions: read-out: BACE2 Enzyme IC50
Sequence of human recombinant BACE2 (Q9Y5Z0 63-518): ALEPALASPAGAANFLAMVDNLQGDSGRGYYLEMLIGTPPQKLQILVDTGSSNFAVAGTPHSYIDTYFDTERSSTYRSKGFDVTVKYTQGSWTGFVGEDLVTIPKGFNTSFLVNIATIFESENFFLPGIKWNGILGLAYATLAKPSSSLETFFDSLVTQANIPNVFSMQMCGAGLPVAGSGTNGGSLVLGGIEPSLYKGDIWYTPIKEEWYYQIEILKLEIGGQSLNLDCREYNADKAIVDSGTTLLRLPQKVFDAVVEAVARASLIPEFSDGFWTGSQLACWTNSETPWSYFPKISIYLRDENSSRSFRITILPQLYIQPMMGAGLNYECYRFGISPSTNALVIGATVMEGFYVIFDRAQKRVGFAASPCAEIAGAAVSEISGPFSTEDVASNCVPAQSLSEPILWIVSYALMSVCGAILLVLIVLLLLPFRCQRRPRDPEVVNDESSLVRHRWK

Cathepsin D (CatD) = Cathepsin D (CatD) (Homo sapiens (Human), UniProt P07339); experiment: In vitro enzymatic Cathepsin D (CatD) FRET assay; assay type: biochemical; conditions: read-out: Cat D Enzyme IC50
Sequence of Cathepsin D (CatD) (P07339 65-412, species assumed): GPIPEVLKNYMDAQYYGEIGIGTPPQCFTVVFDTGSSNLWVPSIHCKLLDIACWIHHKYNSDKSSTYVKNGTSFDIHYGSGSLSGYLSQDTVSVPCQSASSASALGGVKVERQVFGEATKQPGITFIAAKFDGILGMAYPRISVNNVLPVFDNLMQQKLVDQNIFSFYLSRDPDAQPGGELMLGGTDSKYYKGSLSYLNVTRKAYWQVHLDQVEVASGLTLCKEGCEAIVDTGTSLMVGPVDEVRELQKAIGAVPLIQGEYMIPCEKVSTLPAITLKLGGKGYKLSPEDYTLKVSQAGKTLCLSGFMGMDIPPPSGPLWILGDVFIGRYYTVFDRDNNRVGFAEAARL

Row | IC50 (BACE1 [1]) [nM] | IC50 (BACE1 [2]) [nM] | IC50 (human recombinant BACE2) [nM] | IC50 (Cathepsin D (CatD)) [nM] | SMILES
1 | 26 | 38 | 6 | 57500 | CN1C(N)=N[C@](C)(c2cc(/C=C(\F)c3nc(C#N)cs3)ccc2F)CS1(=O)=O [Example 267, 2-((Z)-2-(3-((5R)-3-amino-2,5-dimethyl-1,1-dioxido-5,6-dihydro-2H-1,2,4-thiadiazin-5-yl)-4-fluorophenyl)-1-fluoroethenyl)-1,3-thiazole-4-carbonitrile]
2 | 5 | 26 | 10 | 99900 | CN1C(N)=N[C@](C)(c2cc(/C=C(\F)c3ncc(C(F)(F)F)cc3Cl)ccc2F)CS1(=O)=O [Example 242, (5R)-5-(5-((Z)-2-(3-chloro-5-(trifluoromethyl)-2-pyridinyl)-2-fluoroethenyl)-2-fluorophenyl)-2,5-dimethyl-5,6-dihydro-2H-1,2,4-thiadiazin-3-amine 1,1-dioxide]
3 | 179 | 656 | 24 | 111000 | COc1cc(/C(F)=C/c2ccc(F)c([C@]3(C)CS(=O)(=O)N(C)C(N)=N3)c2)ncc1Cl [Example 230, (R,Z)-3-amino-5-(5-(2-(5-chloro-4-methoxypyridin-2-yl)-2-fluorovinyl)-2-fluorophenyl)-2,5-dimethyl-5,6-dihydro-2H-1,2,4-thiadiazine 1,1-dioxide]
4 | 12 | 35 | 46 | 76100 | CC1(C)C(N)=N[C@](C)(c2cc(/C=C(\F)c3ccc(C#N)cn3)cc(F)c2F)CS1(=O)=O [Example 192, (R,Z)-6-(2-(3-(5-amino-3,6,6-trimethyl-1,1-dioxido-3,6-dihydro-2H-1,4-thiazin-3-yl)-4,5-difluorophenyl)-1-fluorovinyl)nicotinonitrile]
5 | 207 | 102 | 235 | 237000 | CN1C(N)=N[C@](C)(c2cc(/C=C(\F)c3cc4c(cn3)OCO4)ccc2F)CS1(=O)=O [Example 257, (5R)-5-(5-((Z)-2-([1,3]dioxolo[4,5-c]pyridin-6-yl)-2-fluoroethenyl)-2-fluorophenyl)-2,5-dimethyl-5,6-dihydro-2H-1,2,4-thiadiazin-3-amine 1,1-dioxide]
6 | 33 | 60 | 163 | 173000 | COCCOc1cnc(/C(F)=C/c2ccc(F)c([C@@]3(C)N=C(N)[C@@]4(CF)CC[C@@H]3S4(=O)=O)c2)cn1 [Example 130, (1R,4R,5S)-2-amino-4-(2-fluoro-5-((Z)-2-fluoro-2-(5-(2-methoxyethoxy)pyrazin-2-yl)vinyl)phenyl)-1-(fluoromethyl)-4-methyl-8-thia-3-azabicyclo[3.2.1]oct-2-ene 8,8-dioxide]
7 | 88 | 53 | 225 | 124000 | Cc1noc(COc2cnc(/C(F)=C/c3ccc(F)c([C@]4(C)CS(=O)(=O)C(C)(C)C(N)=N4)c3)cn2)n1 [Example 175, (R,Z)-5-amino-3-(2-fluoro-5-(2-fluoro-2-(5-((3-methyl-1,2,4-oxadiazol-5-yl)methoxy)pyrazin-2-yl)vinyl)phenyl)-3,6,6-trimethyl-3,6-dihydro-2H-1,4-thiazine 1,1-dioxide]
8 | 54 | 527 | 194 | > 400000 | CCOc1cnc(/C(F)=C/c2ccc(F)c([C@@]3(C)N=C(N)[C@@]4(CF)CC[C@@H]3S4(=O)=O)c2)cn1 [Example 122, (1R,4R,5S)-2-amino-4-(5-((Z)-2-(5-ethoxypyrazin-2-yl)-2-fluorovinyl)-2-fluorophenyl)-1-(fluoromethyl)-4-methyl-8-thia-3-azabicyclo[3.2.1]oct-2-ene 8,8-dioxide]
9 | 13 | 222 | 57 | 155000 | CC1(C)C(N)=N[C@](CF)(c2cc(/C=C(\F)c3ccc(C#N)cn3)ccc2F)CS1(=O)=O [Example 188, (S,Z)-6-(2-(3-(5-amino-3-(fluoromethyl)-6,6-dimethyl-1,1-dioxido-3,6-dihydro-2H-1,4-thiazin-3-yl)-4-fluorophenyl)-1-fluorovinyl)nicotinonitrile]
10 | 1120 | 410 | 2360 | 55200 | C[C@H]1COc2cnc(/C(F)=C/c3ccc(F)c([C@]4(C)CS(=O)(=O)N(C)C(N)=N4)c3)nc2O1 [Example 236, (R)-3-amino-5-(2-fluoro-5-((Z)-2-fluoro-2-((S)-7-methyl-6,7-dihydro-[1,4]dioxino[2,3-d]pyrimidin-2-yl)vinyl)phenyl)-2,5-dimethyl-5,6-dihydro-2H-1,2,4-thiadiazine 1,1-dioxide]
11 | 750 | 653 | 78 | 69800 | CN1C(N)=N[C@](C)(c2cc(/C=C(\F)c3cnc(C4CC4)cn3)ccc2F)CS1(=O)=O [Example 266, (R,Z)-3-amino-5-(5-(2-(5-cyclopropylpyrazin-2-yl)-2-fluorovinyl)-2-fluorophenyl)-2,5-dimethyl-5,6-dihydro-2H-1,2,4-thiadiazine 1,1-dioxide]
12 | 349 | 1820 | 333 | 59500 | CC1(C)C(N)=N[C@](C)(c2cc(/C=C(\F)c3cnc(Oc4ccccc4)cn3)ccc2F)CS1(=O)=O [Example 211, (R,Z)-5-amino-3-(2-fluoro-5-(2-fluoro-2-(5-phenoxypyrazin-2-yl)vinyl)phenyl)-3,6,6-trimethyl-3,6-dihydro-2H-1,4-thiazine 1,1-dioxide]
13 | 48 | 446 | 163 | 91200 | C=CCOc1cnc(/C(F)=C/c2ccc(F)c([C@@]3(C)N=C(N)[C@@]4(CF)CC[C@@H]3S4(=O)=O)c2)cn1 [Example 125, (1R,4R,5S)-4-(5-((Z)-2-(5-(allyloxy)pyrazin-2-yl)-2-fluorovinyl)-2-fluorophenyl)-2-amino-1-(fluoromethyl)-4-methyl-8-thia-3-azabicyclo[3.2.1]oct-2-ene 8,8-dioxide]
14 | 296 | 277 | 790 | 335000 | CC1(C)C(N)=N[C@](C)(c2cc(/C=C(\F)c3cc4c(cn3)OCCO4)ccc2F)CS1(=O)=O [Example 184, (R,Z)-5-amino-3-(5-(2-(2,3-dihydro-[1,4]dioxino[2,3-c]pyridin-7-yl)-2-fluorovinyl)-2-fluorophenyl)-3,6,6-trimethyl-3,6-dihydro-2H-1,4-thiazine 1,1-dioxide]
15 | 7 | 9 | 103 | 78100 | Cc1nnc(COc2cnc(/C(F)=C/c3ccc(F)c([C@]4(C)CS(=O)(=O)N(C)C(N)=N4)c3)cn2)o1 [Example 173, (R,Z)-3-amino-5-(2-fluoro-5-(2-fluoro-2-(5-((5-methyl-1,3,4-oxadiazol-2-yl)methoxy)pyrazin-2-yl)vinyl)phenyl)-2,5-dimethyl-5,6-dihydro-2H-1,2,4-thiadiazine 1,1-dioxide]
16 | 6 | 8 | 31 | 206000 | CN1C(N)=N[C@](C)(c2cc(/C=C(\F)c3ccc(C(F)(F)F)cn3)ccc2F)CS1(=O)=O [Example 244, (5R)-5-(2-fluoro-5-((Z)-2-fluoro-2-(5-(trifluoromethyl)-2-pyridinyl)ethenyl)phenyl)-2,5-dimethyl-5,6-dihydro-2H-1,2,4-thiadiazin-3-amine 1,1-dioxide]
17 | 636 | 2180 | 1060 | 249000 | CC(C)(C#N)COc1cnc(/C(F)=C/c2ccc(F)c([C@]3(C)CS(=O)(=O)C(C)(C)C(N)=N3)c2)cn1 [Example 153, (R,Z)-3-((5-(2-(3-(5-amino-3,6,6-trimethyl-1,1-dioxido-3,6-dihydro-2H-1,4-thiazin-3-yl)-4-fluorophenyl)-1-fluorovinyl)pyrazin-2-yl)oxy)-2,2-dimethylpropanenitrile]
18 | 86 | 866 | 120 | > 400000 | CCCOc1cnc(/C(F)=C/c2ccc(F)c([C@@]3(C)N=C(N)[C@@]4(CF)CC[C@@H]3S4(=O)=O)c2)cn1 [Example 135, (1R,4R,5S)-2-amino-4-(2-fluoro-5-((Z)-2-fluoro-2-(5-propoxypyrazin-2-yl)vinyl)phenyl)-1-(fluoromethyl)-4-methyl-8-thia-3-azabicyclo[3.2.1]oct-2-ene 8,8-dioxide]
19 | 39 | 318 | 76 | 217000 | CN1C(N)=N[C@](C)(c2cc(/C=C(\F)c3cnc(Cl)cn3)ccc2F)C(C)(C)S1(=O)=O [Example 182, (R,Z)-3-amino-5-(5-(2-(5-chloropyrazin-2-yl)-2-fluorovinyl)-2-fluorophenyl)-2,5,6,6-tetramethyl-5,6-dihydro-2H-1,2,4-thiadiazine 1,1-dioxide]
20 | 3 | 22 | 232 | 77600 | C#C[C@H](CC)Oc1cnc(/C(F)=C/c2ccc(F)c([C@]3(C)CS(=O)(=O)C(C)(C)C(N)=N3)c2)cn1 (single isomer, unassigned) [Example 178]
21 | 28 | 227 | 167 | 135000 | C[C@]1(c2cc(/C=C(\F)c3cnc(OCC(F)(F)F)cn3)ccc2F)N=C(N)[C@@]2(CF)CC[C@@H]1S2(=O)=O [Example 109, (1R,4R,5S)-2-amino-4-(2-fluoro-5-((Z)-2-fluoro-2-(5-(2,2,2-trifluoroethoxy)pyrazin-2-yl)vinyl)phenyl)-1-(fluoromethyl)-4-methyl-8-thia-3-azabicyclo[3.2.1]oct-2-ene 8,8-dioxide]

Row | SMILES | IC50 (BACE1 [1]) [nM] | IC50 (BACE1 [2]) [nM] | IC50 (human recombinant BACE2) [nM] | IC50 (Cathepsin D (CatD)) [nM]
22 | CC1(C)C(N)=N[C@](C)(c2cc(/C=C(\F)c3cnc(Cl)cn3)cnc2F)CS1(=O)=O [Example 203, (R,Z)-5-amino-3-(5-(2-(5-chloropyrazin-2-yl)-2-fluorovinyl)-2-fluoropyridin-3-yl)-3,6,6-trimethyl-3,6-dihydro-2H-1,4-thiazine 1,1-dioxide] | 125 | 196 | 56 | 85400
